As a reminder, the IC50 is the concentration needed to halve the response being measured.

For assay [1], the target named is T1, Neuronal acetylcholine receptor; alpha4/beta2 (Homo sapiens, UniProt P17787+P43681). As to the kind of experiment: Antagonist activity at human alpha4beta2 nAChR expressed in HEK tsA201 cells assessed as inhibition of epibatidine-induced intracellular calcium accumulation after 1 hr by fluorescence assay. The assay is classed as functional, cell-based, HEK293.

Assay [2] deals with Neuronal acetylcholine receptor; alpha3/beta4 (Homo sapiens, UniProt P30926+P32297). As to the kind of experiment: Antagonist activity at human alpha3beta4 nAChR expressed in HEK tsA201 cells assessed as inhibition of epibatidine-induced intracellular calcium accumulation after 1 hr by fluorescence assay. It is filed as functional, cell-based, HEK293.
Sequence of Neuronal acetylcholine receptor; alpha3/beta4 (P30926 whole entry): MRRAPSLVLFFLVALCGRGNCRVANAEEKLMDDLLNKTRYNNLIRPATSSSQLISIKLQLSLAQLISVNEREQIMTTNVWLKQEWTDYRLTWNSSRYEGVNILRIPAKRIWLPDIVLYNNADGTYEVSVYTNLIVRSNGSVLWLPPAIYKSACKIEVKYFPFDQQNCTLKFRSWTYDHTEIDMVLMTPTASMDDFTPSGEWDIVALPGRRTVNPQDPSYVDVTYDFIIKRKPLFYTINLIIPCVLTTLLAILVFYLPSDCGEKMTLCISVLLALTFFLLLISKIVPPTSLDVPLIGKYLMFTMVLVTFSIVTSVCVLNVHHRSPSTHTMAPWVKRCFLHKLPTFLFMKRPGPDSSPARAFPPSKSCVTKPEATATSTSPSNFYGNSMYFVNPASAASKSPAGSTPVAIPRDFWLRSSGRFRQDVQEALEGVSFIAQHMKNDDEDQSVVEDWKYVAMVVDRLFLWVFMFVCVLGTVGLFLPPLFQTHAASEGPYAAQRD
Sequence of Neuronal acetylcholine receptor; alpha3/beta4 (P32297 whole entry): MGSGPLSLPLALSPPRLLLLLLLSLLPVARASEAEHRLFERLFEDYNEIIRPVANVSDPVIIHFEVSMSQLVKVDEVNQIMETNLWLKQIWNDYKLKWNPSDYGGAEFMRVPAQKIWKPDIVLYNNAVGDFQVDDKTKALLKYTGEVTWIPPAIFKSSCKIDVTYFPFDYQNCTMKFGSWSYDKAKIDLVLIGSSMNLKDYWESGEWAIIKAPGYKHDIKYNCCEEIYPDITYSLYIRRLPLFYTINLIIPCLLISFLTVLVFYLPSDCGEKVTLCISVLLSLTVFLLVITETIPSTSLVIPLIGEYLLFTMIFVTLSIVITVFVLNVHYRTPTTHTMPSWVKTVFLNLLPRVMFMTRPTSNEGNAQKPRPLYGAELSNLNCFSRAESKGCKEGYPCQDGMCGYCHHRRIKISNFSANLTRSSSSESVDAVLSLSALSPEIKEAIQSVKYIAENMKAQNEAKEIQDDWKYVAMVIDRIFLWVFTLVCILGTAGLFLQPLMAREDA
Assay [3] has as its target T1, Neuronal acetylcholine receptor; alpha4/beta2. In words: Antagonist activity at human alpha4beta2 nAChR expressed in HEK tsA201 cells assessed as inhibition of epibatidine-induced intracellular calcium accumulation at 50 uM after 1 hr by fluorescence assay relative to control. It is filed as functional, cell-based. The note with it: HEK293, values are per cent of control. A general note: Calcium flux is commonly read through the fluorescence of an indicator in the cells.

The structures appear in SMILES notation.

T1 sequence (P17787 whole entry): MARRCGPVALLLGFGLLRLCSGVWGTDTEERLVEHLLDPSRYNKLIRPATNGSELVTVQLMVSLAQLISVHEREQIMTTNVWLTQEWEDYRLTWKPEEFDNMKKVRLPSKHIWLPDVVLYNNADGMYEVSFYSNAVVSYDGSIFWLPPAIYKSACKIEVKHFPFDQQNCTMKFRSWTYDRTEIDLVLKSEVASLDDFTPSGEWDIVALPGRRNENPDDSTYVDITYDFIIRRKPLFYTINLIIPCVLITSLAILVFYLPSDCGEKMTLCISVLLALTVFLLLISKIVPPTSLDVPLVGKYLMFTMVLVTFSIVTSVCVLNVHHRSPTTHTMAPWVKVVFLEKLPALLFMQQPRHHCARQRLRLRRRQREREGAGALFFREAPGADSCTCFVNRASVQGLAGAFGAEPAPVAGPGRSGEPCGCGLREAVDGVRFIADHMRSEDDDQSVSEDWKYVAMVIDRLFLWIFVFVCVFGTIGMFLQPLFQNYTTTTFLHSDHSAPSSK
T1 sequence (P43681 whole entry): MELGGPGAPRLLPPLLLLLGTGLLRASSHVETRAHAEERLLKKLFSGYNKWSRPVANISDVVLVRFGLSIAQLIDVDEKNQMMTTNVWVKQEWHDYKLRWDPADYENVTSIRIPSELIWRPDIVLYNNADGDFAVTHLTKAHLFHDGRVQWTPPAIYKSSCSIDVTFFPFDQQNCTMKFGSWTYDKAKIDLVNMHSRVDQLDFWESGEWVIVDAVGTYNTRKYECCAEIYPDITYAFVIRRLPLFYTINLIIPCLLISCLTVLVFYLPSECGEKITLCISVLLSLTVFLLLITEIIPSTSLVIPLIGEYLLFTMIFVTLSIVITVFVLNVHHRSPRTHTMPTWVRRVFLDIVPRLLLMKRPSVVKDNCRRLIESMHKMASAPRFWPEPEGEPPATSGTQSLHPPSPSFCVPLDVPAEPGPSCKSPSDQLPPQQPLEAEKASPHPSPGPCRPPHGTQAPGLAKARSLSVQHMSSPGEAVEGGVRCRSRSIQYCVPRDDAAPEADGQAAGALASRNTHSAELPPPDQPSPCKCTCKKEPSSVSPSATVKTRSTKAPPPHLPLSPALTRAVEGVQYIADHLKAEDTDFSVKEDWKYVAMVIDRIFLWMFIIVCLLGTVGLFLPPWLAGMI

Take `C=CCN1C(=O)[C@](O)(CC(=O)c2ccco2)c2cc(Cl)ccc21`: the half-inhibitory concentration (IC50) in assay [1] is 6.1 µM; in assay [2] it was greater than 100 µM. For the same molecule, the residual activity in assay [3] stood at 51.1%. Taken in the same sequence, the figures for `O=C(O)c1cc(NCc2cccs2)ccc1N1CCOCC1` were 20.6 µM, greater than 100 µM and 49.5%. Turning to `O=C(O)CCC(=O)Nc1cc(F)ccc1F`, the residual activity in assay [3] worked out at 83.3%. On to `CC(=O)N1CCN(c2ccc(NC(=O)c3cccnc3)cc2Cl)CC1`, for which, in assay [3], the residual activity was determined as 103%. Consider `O=C(Nc1ccc(F)cc1)C1CC(=O)n2c(nc3ccccc32)N1` (configuration not stated), for which the residual activity in assay [3] turned out to be 72.5%. With `Cc1cccc(NC(=O)c2cc(N)ccc2N2CCCCC2)n1`, the IC50 in assay [1] is 14.4 µM; in assay [2], 46.3 µM. Besides, the residual activity in assay [3] was found to be 47.7%. In the same order, the values of `O=C(CN1CCN(S(=O)(=O)c2ccc(F)cc2)CC1)Nc1ccccc1F` are 9.8 µM, 19.6 µM and 46.9%. As for `O=C(CN1CCN(c2ccccc2)CC1)NCc1ccco1`, the residual activity in assay [3] worked out at 59.8%. As to `Cn1c(=O)c2[nH]c(CN3CCc4ccccc4C3)nc2n(C)c1=O`, in assay [3], the residual activity is 83.2%. With `C=C(C)CN1C(=O)C(O)(CC(=O)c2ccccn2)c2ccccc21` (configuration not stated), the residual activity in assay [3] was 59.9%. For the molecule `Cc1cccc(C(C)C)c1NC(=O)c1ccccc1NS(C)(=O)=O`, the residual activity in assay [3] was found to be 74%. Consider `COC(=O)c1ccc(N2CCN(C)CC2)c(NC(=O)Cc2ccccc2)c1`, for which the residual activity in assay [3] turned out to be 71%.

For the molecule `CC(=O)Nc1ccc2c(c1)nc(CN1CCCCC1)n2C`, in assay [3], the residual activity came out at 86.2%. For `O=C(CSc1nnc(-c2ccccn2)o1)Nc1cccc2ccccc12`, the residual activity in assay [3] was determined as 76.2%.

The values are drawn from ChEMBL document CHEMBL2021888, “Discovery of Novel α4β2 Neuronal Nicotinic Receptor Modulators through Structure-Based Virtual Screening” (ACS Med Chem Lett, 2011).
